Measurements as given in PMC8706998, “Lipid Nanocarriers-Loaded Nanocomposite as a Suitable Platform to Release Antibacterial and Antioxidant Agents for Immediate Dental Implant Placement Restorative Treatment” (Pharmaceutics, 2021).

Test: Ex vivo permeation/penetration experiments in Franz-type cells
Assay type: in vitro ADME, pig
Conditions: from 30 mg BioQ-CPX
Protocol: Tissue specimens were obtained from the vestibular area of the retromolar trigone derived from 6–8-month-old pigs supplied by the Municipal Slaughterhouse of Villabate (Palermo, Italy) since withdrawn from animals intended for human consumption. By a refrigerated transport box, the specimens were immediately transferred to the laboratory within 1 h from animal sacrifice and surgically treated to remove both adipose and connective tissues in excess. Afterward, they were dipped for 30 min in a 5% THR (w/v) isotonic solution and then stored at −80 °C for a minimum period of one week. Before the permeation/penetration experiments, tissue samples were accurately washed to remove the cryoprotectant, and, subsequently, thermal shocked to obtain the buccal mucosa. Briefly, tissue samples were dipped for 30 s in a pre-warmed (70 °C) isotonic solution, and then the mucosa was carefully peeled off from the connective tissue, obtaining the heat-separated epithelium along with the intact basal lamina. Finally, it was equilibrated in an isotonic solution for 3 h by replacing the medium every 15 min to remove all the biological matter, which could affect the analysis, before use.
The ex vivo permeation/penetration studies were carried out using vertical Franz-type diffusion cells. Briefly, appropriate sections of buccal mucosa were mounted between the donor and the acceptor chambers filled with 1 mL of citrate buffer pH 5.5 and 15 mL of citrate buffer pH 5.5 amended with acetic acid 0.1% (v/v), Acys 0.002% (w/v), and β-CD 3% (w/v). The whole system was equilibrated at 37 ± 0.5 °C for 30 min. Afterward, the medium was removed from the donor compartment, promptly replaced with 30 mg of BioQ-CPX, and soaked with 0.2 mL of citrate buffer pH 5.5. Every 30 min, aliquots (0.5 mL) were withdrawn from the acceptor chamber and immediately replaced with the same volume of fresh acceptor fluid to maintain the sink conditions. Experiments were carried out at 37 ± 0.5 °C in the dark and under constant stirring, being stopped at different time points ranging from 1 to 6 h. The amount of permeated QRC and CPX were quantified by UV–Vis analysis. Data are reported as means ± SE (n = 6).
Briefly, the mucosa was dipped into 2 mL of methanol and warmed up to 60 °C. The extraction procedure was performed twice, and the collected extraction liquors were transferred into a 10 mL flask and brought to volume with fresh methanol. Thus, QRC and CPX amounts were determined by UV–Vis analysis. Results are reported as means ± SE.

## O=c1c(O)c(-c2ccc(O)c(O)c2)oc2cc(O)cc(O)c12 [QRC, quercetin]
After 5 h
  maximum amount accumulated into the mucosa: about 5 % of drugs dose
First hour from application
  amount accumulated into the mucosa: about 4 % of dose
